# Patent US10265317B2, “Combination of creatine, an omega-3 fatty acid, and citicoline” (University of Utah Research Foundation, priority 2014, dated 2019)
# Tests used:
# [1] = system: females between 40-60 years of age; assay: Hamilton Anxiety Rating Scale (HAM-A), clinical study; type: in vivo, human; conditions: Visit 2, higher score indicates more severe symptoms
# Protocol: (§1) Approval for the study was obtained from the University of Utah Institutional Review Board (IRB). Informed consent consisted of written assent from participants. The study was conducted under U.S. Food and Drug Administration (FDA) Investigational New Drug Application #104,586. An external Data Safety and Monitoring Board vested with authority to halt the trial was established, and the study was conducted in accordance of the principles of Good Clinical Practice (GCP).
# (§2) Participants were recruited through self-referral and IRB-approved advertising. Consecutive patients who met inclusion criteria were enrolled. Inclusion criteria included the following: females between 40-60 years of age. […]
# (§3) At each study visit, the following rating scales were administered: the Hamilton Anxiety Rating Scale (HAM A) (Hamilton, 1969) and the Hamilton Depression Rating Scale (HAM D) (Hamilton, 1960), the California Verbal Learning Test (Delis et al., 1987) and the Rey Osterrieth Figure Test (Bennett-Levy, 1984). Adverse events we recorded at each study visit. […]
# [2] = system: females between 40-60 years of age; assay: Hamilton Depression Rating Scale (HAM-D), clinical study; type: in vivo, human; conditions: Visit 2, higher score indicates more severe symptoms
# Protocol: as §1, §2, §3
# [3] = system: frontal lobe levels of both phosphocreatine and adenosine triphosphate; conditions: chronic oral administration; cited from earlier work
structure (smiles),measurement,setting,value
"C[N+](C)(C)CCOP(=O)(O)OP(=O)([O-])OC[C@H]1O[C@@H](n2ccc(N)nc2=O)[C@H](O)[C@@H]1O [CDP-Choline, cytidine-5′-diphosphocholine]",HAM-A Mean,[1]; 250 mg CDP-Choline,1.80
same,HAM-A Mean,[1]; 500 mg CDP-Choline,1.35
same,HAM-D Mean,[2]; 250 mg CDP-Choline,1.60
same,HAM-D Mean,[2]; 500 mg CDP-Choline,1.35
same,frontal lobe levels of phosphocreatine and adenosine triphosphate,[3],increase
